The subject of test [1] is SW48 colorectal xenografts. The experiment in a line: Efficacy against subcutaneous SW48 colorectal xenografts. As to conditions: for % T/C / maximal regression: amorphous sodium salt; for anti-tumor effect / relapse while on treatment: p.o. qd; for anti-tumor effect: all dose levels of the study; for relapse while on treatment: time of relapse dose dependent. It is filed as in vivo, Crl:NU(NCr)-Foxn1nu nude mice. How it is done: Experiments were performed in female Crl:NU(NCr)-Foxn1^nu-homozygous nude mice (Charles River). Animals were housed under Optimized Hygienic Conditions in Allentown XJ cages (IVC, max. 6 mice per cage) with food and water at libitum and a 12 h:12 h light:dark cycle. Animals were allowed to acclimatize for at least 1 week before being enrolled in the experimental design. The study described here was performed according to license 1975 approved by the Basel Cantonal Veterinary Office.
Tumors were established by subcutaneous inoculation of human colorectal cancer SW48 cells (5×10^6 cells/animal in 100 μL in HBSS). SW48 human colorectal cancer cells were obtained from ATCC. The cells were cultured in RPMI-1640 medium (BioConcept Ltd., #1-41F01-1) supplemented with 10% FCS (Bio Concept #2-01F30-1), 2 mM L-glutamine (BioConcept Ltd., #5-10K50-H), 1 mM sodium pyruvate (Bio Concept #5-60F00-H) and 10 mM HEPES (Bio Concept #5-31F00-H) at 37° C. in an atmosphere of 5% CO2 in air. To establish SW48 xenografts cells were harvested and re-suspended in HBSS (Sigma, #H6648) before injecting subcutaneously 100 μL containing 5 million cells in the right flank of animals which were anaesthetized with isoflurane. Tumor size, in mm^3, was calculated following the formula: (L×W2×π/6); where W=width and L=length of the tumor. As a measure of efficacy the % T/C value is calculated at the end of the experiment according to:
Tumor regression was calculated according to: […]
Where Δtumor volumes represent the mean tumor volume on the evaluation day minus the mean tumor volume at the start of the experiment.
Amorphous sodium salt of test compound (corrected by salt factor) was dissolved in an aqueous 20% w/v solution of 2-hydroxypropyl-beta-cyclodextrin (HPBCD). A range of concentrations was prepared by serial dilution starting from the solution at highest concentration for the highest dose in the study.
Treatment was initiated about two weeks post tumor cell inoculation, when the xenografts had reached a mean volume of approximately 200 mm^3. The tumor bearing animals were randomized based on tumor volumes into experimental groups with 6 animals per group and treatment was initiated. Compounds were dosed orally (p.o.) once per day (qd) at 1, 3, 5 or 10 mg/kg (Example 18A) and at 0.1, 0.3, 1, 3 mg/kg (Example 21A). In addition, a control group treated once per day with vehicle (20% 2-hydroxypropyl-β-cyclodextrin) was included in each study. Tumor volumes and body weights were measured two times per week until the study termination.

In a further test the test system is SW48 cells. The experiment in a line: Proliferation assay SW48 (CellTiterGlo, 96 hours). Type of test: cell-based. The note with it: Homo sapiens. The gist of the method: (§1)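 Cells in RPMI-1640/10% FCS were seeded overnight (SW48 2'000, DLD1-WRN-KO 1'500 cells/well), then exposed to eight 3-fold compound dilutions at 0.1% DMSO. ATP luminescence relative to a day-0 plate gives % growth (0% stasis, −100% complete kill). GI50 is the geometric mean of ≥2 independent replicates.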
A general note: Cellular ATP, detected with luciferase, serves as a proxy for viable cell number.

For a further test, the system named is DLD1-WRN-KO cells. The experiment in a line: Proliferation assay DLD1-WRN-KO (CellTiterGlo, 96 hours), off-target effects. As to conditions: Homo sapiens. It is filed as cell-based. The gist of the method: as §1

In general, GI50 refers to the concentration that inhibits growth by half. High values mean less potent growth inhibition, low ones more potent growth inhibition.

As for `Cc1ncnc(C(=O)N2CCN(c3c4n(c5nc(C6=CCOCC6)nn5c3=O)[C@@H](C(=O)Nc3ccc(C(F)(F)F)cc3Cl)C[C@H]4C)C[C@H]2C)c1O` [Example 18A, (7R,9R)—N-(2-chloro-4-(trifluoromethyl)phenyl)-2-(3,6-dihydro-2H-pyran-4-yl)-6-((R)-4-(5-hydroxy-6-methylpyrimidine-4-carbonyl)-3-methylpiperazin-1-yl)-7-methyl-5-oxo-5,7,8,9-tetrahydropyrrolo[1,2-c][1,2,4]triazolo[1,5-a]pyrimidine-9-carboxamide], in test [1] (1 mg/kg p.o. qd, day 32 of the study (fourteenth day of treatment)), the “% T/C” value is reported as 22%. Also, the maximal regression was 71% in test [1] (3 mg/kg p.o. qd, day 49 of the study (thirty first day of treatment)); 83% in test [1] (5 mg/kg p.o. qd, day 49 (thirty first day of treatment)); 91% in test [1] (10 mg/kg p.o. qd, day 63 (forty fifth day of treatment)). Besides, the anti-tumor effect result in test [1] is given as “Dose dependent anti-tumor effect was observed”. Besides, the “relapse while on treatment” value in test [1] is listed as “Relapse was observed for all treatment groups”. Moreover, the GI50 with SW48 cells is 40 nM; with DLD1-WRN-KO cells, above 50000 nM.

For the compound `Cc1ncnc(C(=O)N2CCN(c3c4n(c5nc(C6=CCOCC6)nn5c3=O)[C@@H](C(=O)Nc3ccc(C(F)(F)F)cc3Cl)C[C@H]4C)[C@H]3CC[C@@H]32)c1O` [Example 21A, (7R,9R)—N-(2-chloro-4-(trifluoromethyl)phenyl)-2-(3,6-dihydro-2H-pyran-4-yl)-6-((1S,6S)-5-(5-hydroxy-6-methylpyrimidine-4-carbonyl)-2,5-diazabicyclo[4.2.0]octan-2-yl)-7-methyl-5-oxo-5,7,8,9-tetrahydropyrrolo[1,2-c][1,2,4]triazolo[1,5-a]pyrimidine-9-carboxamide], the “% T/C” value in test [1] (0.1 mg/kg p.o. qd, day 25 throughout 29th day of the study (tenth to fourteenth day of treatment)) was 50%; in test [1] (0.3 mg/kg p.o. qd, day 29 of the study (fourteenth day of treatment), initial stasis followed by regrowth) it was 0%. The maximal regression in test [1] (1 mg/kg p.o. qd, day 52 of the study (thirty seventh day of treatment)) turned out to be 75%; in test [1] (3 mg/kg p.o. qd, day 85 (seventieth day of the treatment)), 99%. Also, in test [1], the anti-tumor effect result was “Dose dependent anti-tumor effect was observed”. Further, the “relapse while on treatment” value in test [1] is “no relapse was observed in three animals treated at 1 mg/kg and in entire group treated at 3 mg/kg”. The GI50 in the test with SW48 cells is 6 nM; with DLD1-WRN-KO cells, above 50000 nM.

The record behind these values is patent publication US20240245694A1, “Tricyclic Compounds and their Uses” (Novartis AG, priority 2022, published 2024).
